Results reported in patent publication US6586425B2, “Cytoskeletal active agents for glaucoma therapy” (Wisconsin Alumni Research Foundation, priority 1996, dated 2003).
Where “and” joins values, the source holds several entries; their conditions need not be identical. Equal entries are not always repeated.

What was measured:
[1] = system: bovine aortic endothelial cells; assay: Actin filaments and C-C adhesions in cultured endothelial cells; format: cell-based
[2] = system: living monkey eyes; assay: Intraocular pressure by Goldmann applanation tonometry; format: in vivo, cynomolgus monkeys (Macaca fascicularis); conditions: for time to IOP reduction after administration: living monkeys, topical
Description: The intraocular pressure (IOP) was determined with a “minified” Goldmann applanation tonometer (Kaufman and Davis, Arch. Ophthalmol., 98:542-546[1980]), using “Half and Half®” creamer solution (Borden) as the tear film indicator (Croft et al., in Lakshminarayanan (ed.), Basic and Clinical Applications of Vision Science, Dordtecht, Kluwer, [1997], pp. 213-216), with the monkey lying prone in a head holder and the eyes positioned 4 to 8 cm above the heart. All monkeys were examined by slit-lamp before the first IOP measurement in each protocol. For each eye, two or three IOP measurements were averaged as a baseline.
After baseline IOP was measured, 21 or 42 μg LAT-A or 4 μg LAT-B were administered to the central cornea of supine monkeys in one eye and the vehicle to the opposite eye. Blinking was prevented with lid speculums during and for 5 min. after drug administration (taking care to avoid touching the globe), to maximize drug penetration into the AC and minimize systemic absorption. Following drug administration, the speculums were gently removed and the monkeys were kept in the supine position for another 15 min to further facilitate penetration of drug/vehicle solution into the AC. For LAT-A, IOP was then measured every hr for 7 to 9 hr beginning 1, 6, or 15 hr after the 21 gg dose, or beginning 1 or 6 hr after the 42 μg dose, and again at 24 hr. Each protocol included two groups of monkeys. Group one (6 monkeys) underwent IOP measurement from 1-9 hr and again at 24 hr after the drug; group two (6 monkeys) were measured from 6-13 hr for both doses and again from 15 hr-21 hr on a separate occasion for the 21 μg dose. For both doses, one monkey in group one was used again in group two; therefore its two readings measured at baseline or the period 6-9 hr after the drug on the two different occasions was averaged for data analysis. Thus, “n” for baseline and the period 6-9 hr post-drug is 11 rather than 12. During intervals between the post-drug reading at 9 hr and that at 24 hr for group one or between the drug administration and the first post-drug reading at 6 hr for group two, the animals were returned to the Animal Care Unit for recovery. For LAT-B, IOP was measured every hr for 6 hr beginning 1 hr after the 4 μg dose, and again at 24 hr. The animals were returned to the Animal Care Unit for recovery between the measurements at 6 hr and 24 hr. Anterior segments were examined by slit-lamp at 3, 6, 10 or 24 hr after LAT-A, or at 1, 3, 6 or 24 hr after LAT-B.

[3] = system: living monkey eyes; assay: Aqueous humor flow and corneal endothelial transfer coefficient ka by fluorophotometry; conditions: for AHF Rx, LAT-B/Vehicle / AHF Rx/BL, LAT-B eye / AHF Rx/BL, LAT-B/Vehicle / ka Rx, LAT-B eye / ka Rx, LAT-B/Vehicle / ka Rx/BL, LAT-B eye / ka Rx/BL, LAT-B/Vehicle: 4.0 μg LAT-B topical
[4] = system: living monkey eyes; assay: Blood-aqueous barrier permeability to systemic fluorescein; format: in vivo, cynomolgus monkeys (Macaca fascicularis); conditions: 42 μg LAT-A topical
Description: Topical LAT-A (42 μg) was given to one eye and vehicle to the opposite eye as described above, 1 hr prior to intravenous injection of fluorescein Na in the saphenous vein (10 mg/kg in 500-600 μl) followed by a 4 ml saline flush. The concentration of fluorescein ([fluorescein]) in the cornea and AC was determined by fluorophotometry 15, 30, 45, 60, 90, 120, 180 and 240 min after fluorescein injection.

[5] = system: cornea; assay: Corneal thickness by ultrasonic pachymetry; format: in vivo, cynomolgus monkeys (Macaca fascicularis)
Description: Corneal thickness was measured using a DGH-1000 ultrasonic pachymeter (DGH Technology). All eyes were examined by biomicroscopy prior to baseline measurements. Monkeys were placed supine in head holders. The central cornea was measured once and the peripheral cornea was measured four times midway between the center and the limbus on the vertical and horizontal axes. For each point in each eye, two baseline thickness measurements were averaged, and 4.0 μg LAT-B or 25% DMSO was administered to opposite eyes in the LAT-B protocol, or 25% DMSO or Bárány's administered to opposite eyes in the DMSO control protocol. The eyelids were held open manually during and for 5 min. after drug or vehicle administration. Corneal thickness was measured every 30-min. for 6 hr and again at 24 hr.

[6] = system: living monkey eye; conditions: living monkeys; cited from earlier work
[7] = 42 μg LAT-A topical, second 3 hr
[8] = 42 μg LAT-A topical, hour 0.5 to 3.0, n=8
[9] = 42 μg LAT-A topical, hour 0.5 to 6.0, n=8
[10] = 42 μg LAT-A topical, hour 3.5 to 6.0, n=8

Structure (SMILES): C/C1=C/C(=O)O[C@@H]2C[C@@H](CC[C@H](C)/C=C\C=C\CC1)O[C@@](O)([C@@H]1CSC(=O)N1)C2 [LAT-A]
- effects on actin filaments and C-C adhesions ([1]; concentrations greater than 0.5 μM, 1 hour of exposure): unequivocal effects
- effects on actin filaments and C-C adhesions ([1]; lower concentrations): more subtle slower onset effects
- period of lowered IOP after drug administration ([2]; 21 μg LAT-A topical): 5 to 10 h
- maximal IOP decrease below baseline ([2]; 21 μg LAT-A topical, at 8 hr, n=11): 3.48±1.29 mmHg
- period of lowered IOP after drug administration ([2]; 42 μg LAT-A topical): 6 to 13 h
- maximal IOP reduction below baseline ([2]; 42 μg LAT-A topical, at 9 hr, n=11): 4.60±1.61 mmHg
- time to IOP reduction after administration [2]: 6 h
- relative difference in ka between first and second 3-hr intervals ([3]; 42 μg LAT-A topical): 27±12%
- increase in ka ([3]; 42 μg LAT-A topical, first 3 hr): 106±16%
- increase in apparent AHF relative to vehicle, adjusted for baseline ([3]; 42 μg LAT-A topical, first 3 hr, n=8): 87% and 87±13%
- increase in ka ([3]; 42 μg LAT-A topical, overall, n=8): 94±9%
- AHF, drug- vs vehicle-treated eyes [3, 7]: no significant differences
- increase in ka [3, 7]: 68±10%
- AHF Rx, LAT-A eye [3, 8]: 3.48 microliters per minutes
- AHF Rx, LAT-A/Vehicle [3, 8]: 1.94
- AHF Rx/BL, LAT-A eye [3, 8]: 1.82
- AHF Rx/BL, LAT-A/Vehicle [3, 8]: 1.87
- ka Rx, LAT-A eye [3, 8]: 0.00996 min⁻¹
- ka Rx, LAT-A/Vehicle [3, 8]: 2.15
- ka Rx/BL, LAT-A eye [3, 8]: 1.84
- ka Rx/BL, LAT-A/Vehicle [3, 8]: 2.06
- AHF Rx, LAT-A eye [3, 9]: 2.65 microliters per minutes
- AHF Rx, LAT-A/Vehicle [3, 9]: 1.51
- AHF Rx/BL, LAT-A eye [3, 9]: 1.38
- AHF Rx/BL, LAT-A/Vehicle [3, 9]: 1.51
- ka Rx, LAT-A eye [3, 9]: 0.00961 min⁻¹
- ka Rx, LAT-A/Vehicle [3, 9]: 1.98
- ka Rx/BL, LAT-A eye [3, 9]: 1.72
- ka Rx/BL, LAT-A/Vehicle [3, 9]: 1.94
- AHF Rx, LAT-A eye [3, 10]: 1.87 microliters per minutes
- AHF Rx, LAT-A/Vehicle [3, 10]: 1.00
- AHF Rx/BL, LAT-A eye [3, 10]: 1.00
- AHF Rx/BL, LAT-A/Vehicle [3, 10]: 1.01
- ka Rx, LAT-A eye [3, 10]: 0.00925 min⁻¹
- ka Rx, LAT-A/Vehicle [3, 10]: 1.69
- ka Rx/BL, LAT-A eye [3, 10]: 1.59
- ka Rx/BL, LAT-A/Vehicle [3, 10]: 1.68
- [fluorescein]cornea, LAT-A-treated vs vehicle-treated eyes ([4]; 15 min after i.v. fluorescein (1.25 hr after LAT-A)): ~10 times
- [fluorescein]cornea, LAT-A-treated vs vehicle-treated eyes ([4]; 240 min after i.v. fluorescein): ~1.5 times
- [Fluorescein]AC higher in LAT-A eyes than in vehicle-treated eyes ([4]; 240 min after i.v. fluorescein, n=4): 24±3%

Structure (SMILES): C/C1=C/C(=O)O[C@@H]2C[C@@H](CC[C@H](C)/C=C\CC1)O[C@@](O)([C@@H]1CSC(=O)N1)C2 [LAT-B]
- maximal IOP reduction, adjusted for baseline and contralateral control eyes ([2]; 4 μg LAT-B topical, 6 hr, n=8): 3.1±1.2 mmHg
- IOP ([2]; 4 μg LAT-B topical, at 6 hr (from 17 mmHg)): 13.5 mmHg
- IOP ([2]; 4 μg LAT-B topical, within 1 hr (from 17 mmHg)): 15 mmHg
- time to IOP reduction after administration [2]: ≤ 1 h
- central corneal thickness increase vs contralateral control eyes (maximum) ([5]; 4.0 μg LAT-B topical, 3.5 hr, n=8): ~47 μm and 47±17 μm
- central and peripheral corneal thickness ([5]; 4.0 μg LAT-B topical, 24 hr): returned to baseline
- central cornea thicker compared to normal monkey cornea ([5]; LAT-B, hour 3.5 (maximal change)): ~10%
- effect on AHF ([3]; 4 μg LAT-B topical, first 3 hr): small, insignificant increase in AHF
- increase in ka ([3]; 4 μg LAT-B topical, first 3 hr): 58±20%
- increase in ka ([3]; 4 μg LAT-B topical, overall 6 hr, n=6): 39±5%
- AHF Rx, LAT-B/Vehicle ([3]; hour 0.5 to 3.0, n=6): 1.33
- AHF Rx/BL, LAT-B eye ([3]; hour 0.5 to 3.0, n=6): 1.31
- AHF Rx/BL, LAT-B/Vehicle ([3]; hour 0.5 to 3.0, n=6): 1.33
- ka Rx, LAT-B eye ([3]; hour 0.5 to 3.0, n=6): 0.00735 min⁻¹
- ka Rx, LAT-B/Vehicle ([3]; hour 0.5 to 3.0, n=6): 1.62
- ka Rx/BL, LAT-B eye ([3]; hour 0.5 to 3.0, n=6): 1.44
- ka Rx/BL, LAT-B/Vehicle ([3]; hour 0.5 to 3.0, n=6): 1.58
- AHF Rx, LAT-B/Vehicle ([3]; hour 0.5 to 6.0, n=6): 1.14
- AHF Rx/BL, LAT-B eye ([3]; hour 0.5 to 6.0, n=6): 1.04
- AHF Rx/BL, LAT-B/Vehicle ([3]; hour 0.5 to 6.0, n=6): 1.16
- ka Rx, LAT-B eye ([3]; hour 0.5 to 6.0, n=6): 0.00648 min⁻¹
- ka Rx, LAT-B/Vehicle ([3]; hour 0.5 to 6.0, n=6): 1.34
- ka Rx/BL, LAT-B eye ([3]; hour 0.5 to 6.0, n=6): 1.33
- ka Rx/BL, LAT-B/Vehicle ([3]; hour 0.5 to 6.0, n=6): 1.39
- AHF Rx, LAT-B/Vehicle ([3]; hour 3.5 to 6.0, n=6): 0.93
- AHF Rx/BL, LAT-B eye ([3]; hour 3.5 to 6.0, n=6): 0.84
- AHF Rx/BL, LAT-B/Vehicle ([3]; hour 3.5 to 6.0, n=6): 0.91
- ka Rx, LAT-B eye ([3]; hour 3.5 to 6.0, n=6): 0.0063 min⁻¹
- ka Rx, LAT-B/Vehicle ([3]; hour 3.5 to 6.0, n=6): 1.21
- ka Rx/BL, LAT-B eye ([3]; hour 3.5 to 6.0, n=6): 1.31
- ka Rx/BL, LAT-B/Vehicle ([3]; hour 3.5 to 6.0, n=6): 1.25
- potency relative to LAT-A (outflow facility) [6]: 10 times
